Entries after “also recorded” stand apart in the source; their conditions may differ. Like-named read-outs stand apart in the source and are kept apart here. Residues, ends and D or L forms follow the SMILES beside them. *: point of attachment. Cbz = O=C(OCc1ccccc1)*
What was measured:
[1] = tested on: c-Myc-Ser62 phosphorylation; assay: RIPK2-induced c-Myc-Ser62 phosphorylation immunoblot in RIPK2/MKK7-DKO HEK293T cells; type: cell-based, human
Description: (A) Representative immunoblots of the indicated proteins in total lysates of HEK293T cells with RIPK2- and MKK7-double knockout, which were transiently co-transfected with 0.5 μg MYC, 0.5 μg RIPK2m4, and 0.1 μg MAP2K7 or vector plasmids and then treated with vehicle control, MKK7-COV-3 (25 μM), or JNK-IN-8 (1 μM) in 10% FBS-containing medium for 2 h. (B) Representative images (upper) and quantification (lower) of PLA detecting the association of endogenous MKK7 and c-Myc in HEK293T cells (n=4 per group). (C) Representative images of immunofluorescence colocalization of MKK7 and c-Myc in RIPK2/MKK7-DKO HEK293T cells, which were transiently co-transfected with RIPK2m4, MKK7-His, and MYC plasmids. (D) Representative immunoblots of the indicated proteins after in vitro kinase reactions. (E) Representative immunoblots of the indicated proteins in total lysates of RIPK2/MKK7-DKO HEK293T cells, which were transiently transfected with the indicated forms of MKK7 plasmids or vector control. (F) Representative immunoblots of the indicated proteins in total lysates, cytoplasmic fraction, and nuclear fraction of RIPK2/MKK7-DKO HEK293T cells, which were transiently co-transfected with RIPK2m4, MYC, and MKK7 or vector control. (G) Representative images (upper) and quantification (lower) of PLA detecting the MKK7-c-Myc complex in RIPK2-KO HEK293T cells, which were transiently transfected with MYC and RIPK2m4 or vector control (n=5 per group). […] Data are Mean±SEM.
MKK7-COV-3, 25 μM; JNK-IN-8, 1 μM; 2-h treatment).

JNK = assay: RIPK2-induced c-Jun phosphorylation (surrogate for JNK activity) in RIPK2/MKK7-DKO HEK293T cells; type: cell-based, human; conditions: 1 μM, 2-h treatment
Description: (A) Representative immunoblots of the indicated proteins in total lysates of HEK293T cells with RIPK2- and MKK7-double knockout, which were transiently co-transfected with 0.5 μg MYC, 0.5 μg RIPK2m4, and 0.1 μg MAP2K7 or vector plasmids and then treated with vehicle control, MKK7-COV-3 (25 μM), or JNK-IN-8 (1 μM) in 10% FBS-containing medium for 2 h. (B) Representative images (upper) and quantification (lower) of PLA detecting the association of endogenous MKK7 and c-Myc in HEK293T cells (n=4 per group). (C) Representative images of immunofluorescence colocalization of MKK7 and c-Myc in RIPK2/MKK7-DKO HEK293T cells, which were transiently co-transfected with RIPK2m4, MKK7-His, and MYC plasmids. (D) Representative immunoblots of the indicated proteins after in vitro kinase reactions. (E) Representative immunoblots of the indicated proteins in total lysates of RIPK2/MKK7-DKO HEK293T cells, which were transiently transfected with the indicated forms of MKK7 plasmids or vector control. […] (G) Representative images (upper) and quantification (lower) of PLA detecting the MKK7-c-Myc complex in RIPK2-KO HEK293T cells, which were transiently transfected with MYC and RIPK2m4 or vector control (n=5 per group). […]

[2] = tested on: PC3, DU145, and 22Rv1 cells; assay: Clonogenic assay (anchorage-dependent colony formation); type: cell-based, human
Description: Two milliliters of PC3 (250/mL), DU145 (250/mL), or 22Rv1 (1,000/mL) cells were seeded in 6-well plates and cultured in 10% FBS-containing media, which were replaced every 2-3 days. After 10-14 days, cells were fixed in 4% paraformaldehyde for 15 min and rinsed with DPBS for three times. Cells were stained with 120 μg/mL crystal violet solution. Cell colonies were quantified under an All-in-one microscope (Keyence) as described in the migration assay.

22Rv1 cells = tested on: 22Rv1 cells
Description: Experimental metastasis model: For In vivo metastasis assays, pBMN (CMV-copGFP-Luc2-Puro) (Addgene) was stably transfected into control and RIPK2-KO 22Rv1 cells. Two weeks later, luciferase-expressing cells were sorted with a FACSAria III (BD Biosciences) using the same gate for GFP. […] To each male SCID/Beige mouse (7-week-old; Charles River), 100 μL of 1×10^7 cells/mL in DPBS was intracardially injected into the left cardiac ventricle. Each week, 150 μL of 30 mg/mL D-luciferin was intraperitoneally injected into each mouse, followed by measuring tumor metastasis with an IVIS Spectrum In Vivo Imaging System (PerkinElmer). Luciferase activity was quantified by the Living Image software (Caliper Life Sciences, v4.3.1).
Established metastasis model: For drug treatment, to each male SCID/Beige mouse (8-week-old; Charles River), 100 μL of 2.5×10^6 cells/mL in DPBS was intracardially injected. […] Two more mice were assigned to drug treatment groups in preparation for possible drug toxicity deaths, compared with the control group. Mice were daily administered by oral gavage (po qd) with a drug or vehicle control for 28 days. GSK583 was administered at 10 mg/kg po qd. […] Metastases were visualized by bioluminescence imaging every week as described above. At the end of the experiments, mice were sacrificed by standard necropsy, and tumors were harvested and subjected to histopathology analyses.
In the clinical scenario, patients with nmCRPC have no detectable metastases by conventional radiographic imaging. […] To investigate whether pharmacological inhibition of RIPK2 can suppress PC metastasis in a setting that mimics the clinical scenario, we injected the aforementioned luciferase-tagged control 22Rv1 cells intracardially into male SCID/Beige mice, and waited for 9 days to allow for the formation of early metastatic lesions, prior to drug treatment (FIG. 22G). To determine whether GSK583 impairs metastatic outgrowth, we randomized the mice into two groups (FIG. 31A), followed by treatment with vehicle control or GSK583 (10 mg/kg) administered by oral gavage every day (po qd).

[3] = cited from earlier work
PC3 and 22Rv1 cells = assay: PC cell viability; conditions: 1 μM, 10% FBS-containing medium
c-Myc protein = c-Myc protein degradation under cycloheximide treatment in PC3 cells; type: cell-based, human; conditions: in the presence of CHX treatment
Text: In human cells, the c-Myc protein can be rapidly stabilized through Ser62 phosphorylation, which prevents the targeted degradation of c-Myc by the ubiquitin-proteasome system (Farrell and Sears, 2014). Therefore, we investigated whether RIPK2 phosphorylates and stabilizes the c-Myc protein. Ectopic overexpression of RIPK2 increased the abundance of phospho-c-Myc-Ser62 (p-c-Myc-Ser62) and total c-Myc in a dose-dependent fashion (FIG. 18L). […] Of note, RIPK2 is more frequently amplified or gained in mCRPC or overexpressed in primary PC than all known direct c-Myc-Ser62 kinases (FIG. 29). This raises a possibility that RIPK2 can more efficiently stabilize and activate c-Myc, and thus its overexpression is more favored by PC cells than the known direct c-Myc-Ser62 kinases. Collectively, RIPK2 stabilizes the c-Myc protein by phosphorylating its Ser62 residue and preventing it from proteasomal degradation, and RIPK2 is potentially a major stabilizer of the c-Myc protein in PC cells.

RIPK2 = assay: Cell-based MKK7 phosphorylation immunoblot, surrogate for RIPK2 activity, RIPK2-KO HEK293T cells; design: species or system human; conditions: 10 μM, 2 h, 10% fetal bovine serum
[4] = tested on: RIPK2/MKK7(/JNK)/c-Myc signaling; assay: Immunoblot of endogenous p-JNK, p-c-Myc-S62 and c-Myc in parental PC cells; type: cell-based, human; conditions: 10 μM GSK583 or 5 μM Ponatinib, 2 h
[5] = tested on: PC3, DU145, and 22Rv1 cells; assay: Soft agar assay (anchorage-independent colony formation); type: cell-based, human; conditions: 10 μM
Description: Soft agar assay was performed essentially as described (Borowicz et al., 2014). Briefly, 1.5 mL of 0.5% Nobel agar solution was plated in each well of 6-well plates as the bottom layer. 1.5 mL of 6.67×10^3/mL (for PC3 and DU145) or 1.33×10^4/mL (for 22Rv1) cells in 0.3% noble agar solution were plated in 6-well plates as the top layer. […] The medium was replaced every 2-3 days. After 2-3 weeks, cell colonies were stained with 0.1% crystal violet solution for 20 minutes and washed with deionized water for five times. Cell colonies were quantified under an All-in-one microscope (Keyence) as described in the migration assay.

MYC mRNA = MYC mRNA abundance by quantitative RT-PCR; type: cell-based; conditions: different doses and time
Text: Total RNA was extracted from cells using the TRIZOL (Invitrogen). Messenger RNA was converted to the first-strand cDNA using iScript cDNA synthesis kit (Bio-Rad), followed by RT-PCR reaction using SYBR Green PCR Master Kit in QuantStudio 5 Systems (Applied Biosystems). Gene expression was normalized to GAPDH using the comparative CT method. To determine how RIPK2 upregulates the c-Myc protein, we first examined whether RIPK2 regulates the transcription of the MYC gene. […] Thus, the regulation of c-Myc protein abundance by RIPK2 is mainly via a post-transcriptional mechanism.

[6] = mouse, in vivo, po, 30 mg/kg
PC3 cells = assay: 3D spheroid invasion assay; conditions: 10 μM, 3D culture

Cc1cc(NC(=O)c2cccc(NC(=O)/C=C/CN(C)C)c2)ccc1Nc1nccc(-c2cccnc2)n1 [JNK-IN-8]
reduction of RIPK2-induced c-Myc-Ser62 phosphorylation ([1]; 1 μM, 2-h treatment): 16% | inhibition of RIPK2-induced c-Myc-Ser62 phosphorylation at higher concentrations ([1]; up to 25 μM): could not enhance its inhibition | RIPK2-induced c-Jun phosphorylation, a surrogate for JNK activity (JNK): completed abolished

C=CC(=O)Nc1cccc(-c2n[nH]c3cc(C)ccc23)c1 [MKK7-COV-3]
decrease of RIPK2-induced c-Myc-Ser62 phosphorylation ([1]; 25 μM, 2-h treatment): 45%

Cc1ccc(C(=O)Nc2ccc(CN3CCN(C)CC3)c(C(F)(F)F)c2)cc1C#Cc1cnc2cccnn12 [Ponatinib]
IC50 ([2]; Homo sapiens, read-out: IC50 of colony formation of PC cells): < 1 µM | reduction of total BLI intensities (22Rv1 cells; high-dose 30 mg/kg po qd for 10 days then 15 mg/kg, week 4): 92% | reduction of total BLI intensities (22Rv1 cells; low-dose 6 mg/kg po qd, week 4): 74% | venous thromboembolic events ([3]; % of patients): 6% | arterial occlusive adverse events: cardiac vascular events ([3]; patients): 21% | arterial occlusive adverse events: cerebrovascular ([3]; patients): 9% | arterial occlusive adverse events: peripheral vascular ([3]; patients): 12% | common adverse event: abdominal pain ([3]; patients): 48% | common adverse event: arterial ischemia ([3]; patients): 42% | common adverse event: arthralgia ([3]; patients): 32% | common adverse event: back pain ([3]; patients): 21% | common adverse event: constipation ([3]; patients): 41% | common adverse event: diarrhea ([3]; patients): 20% | common adverse event: dry skin ([3]; patients): 42% | common adverse event: fatigue ([3]; patients): 47% | common adverse event: headache ([3]; patients): 43% | common adverse event: hypertension ([3]; patients): 69% | common adverse event: myalgia ([3]; patients): 24% | common adverse event: nausea ([3]; patients): 28% | common adverse event: pain in extremity ([3]; patients): 23% | common adverse event: peripheral neuropathy ([3]; patients): 24% | common adverse event: pyrexia ([3]; patients): 26% | common adverse event: rash ([3]; patients): 63% | effect on PC cell viability (PC3 and 22Rv1 cells): marginal effects

CC(C)C[C@@H](C=O)NC(=O)[C@H](CC(C)C)NC(=O)[C@H](CC(C)C)NC(=O)OCc1ccccc1 [MG132] (Cbz-Leu-Leu-Leu-aldehyde)
degradation of the c-Myc protein (c-Myc protein): degradation can be blocked

CC(C)(C)S(=O)(=O)c1ccc2nccc(Nc3n[nH]c4ccc(F)cc34)c2c1 [GSK583]
MKK7 phosphorylation levels (a surrogate for RIPK2 activity) (RIPK2): substantially decreased | RIPK2/MKK7(/JNK)/c-Myc signaling [4]: can inhibit | anchorage-dependent colony formation ([2]; 10 μM, PC3, DU145, and 22Rv1): suppresses | inhibition at 10 µM ([2]; Homo sapiens, read-out: inhibition of colony formation): ≥ 40% | inhibition of colony formation ([2]; low doses (≤1 μM), PC3, DU145, and 22Rv1): not at low doses | anchorage-independent colony formation [5]: suppresses | PC liver metastasis in vivo (22Rv1 cells; 10 mg/kg po qd): Inhibits | prostate cancer (22Rv1) metastasis in mice (22Rv1 cells; 10 mg/kg po qd): significantly decreased; also recorded: significantly suppressed; also recorded: significantly reduces; also recorded: Inhibits | decrease of BLI intensities in the ventral-side mid-body (liver metastasis) (22Rv1 cells; 10 mg/kg po qd, week 4): 67% | reduction of metastatic progression (total BLI intensities) (22Rv1 cells; 10 mg/kg po qd, week 4): 50% | regulation of MYC mRNA abundance (MYC mRNA): ~10% | toxicity to mice [6]: toxic to mice | spheroid invasion of PC3 cells (PC3 cells): significantly decreased; also recorded: significantly inhibited; also recorded: suppresses

— patent US12673057B2, “RIPK2 inhibition for the treatment of cancer” (CEDARS-SINAI MEDICAL CENTER, priority 2020, dated 2026)
